Results on two molecules are retold here after patent EP2265631B1, “NOVEL ANTIMICROBIAL PEPTIDES AND THEIR APPLICATION” (Ustav Organicke Chemie a Biochemie Akademie Ved Ceske …, priority 2008, dated 2009).

In one series the test system is bacteria. Description: Antimicrobial effect, general statement. The class given is cell-based. How it is done:
(§1) Antimicrobial activity was determined as a quantitative minimum inhibitory concentration (MIC) by observing bacterial growth in the presence of different concentrations of tested peptides. Mid-exponential phase bacteria were added to the solutions of the tested antimicrobial peptide at different concentrations (0.5 to 100 µM) in LB broth in multi-well plates. The plates were incubated at 37°C for 20 h while being continuously shaken in a Bioscreen C instrument (Finland). The absorbance was measured at 540 nm every 15 min and each peptide was tested at least 3 times in duplicate. 1.2.10^3 - 7.5.10^3 CFU of bacteria was routinely used in the experiments. Tetracycline in a concentration range of 0.1 - 50 µM was tested as a standard.

A further series relates to Pseudomonnas aeruginosa. Description: Determination of antimicrobial activity (MIC, bacterial growth in LB broth). The class given is cell-based. To be noted: minimum inhibitory concentration (MIC) per method, 37°C, 20 h, read-out: Antimicrobial activity IC50 [µM] P.a. How it is done: as §1
Another series concerns Bacilus subtilis. Described as above. The class given is cell-based. The following applies: minimum inhibitory concentration (MIC) per method, 37°C, 20 h, read-out: Antimicrobial activity IC50 [µM] B.s. As for the experimental part: as §1
A further series concerns Escherichia coli. The description is as above. The class given is cell-based. The following applies: minimum inhibitory concentration (MIC) per method, 37°C, 20 h, read-out: Antimicrobial activity IC50 [µM] E. c. How it is done: as §1
A further series concerns Staphylococcus aureus. The description is as above. Type of series: cell-based. The following applies: minimum inhibitory concentration (MIC) per method, 37°C, 20 h, read-out: Antimicrobial activity IC50 [µM] S.a. How it is done: as §1
Another series concerns Tumor cells. As to the kind of experiment: Cytostatic effect on cancer cells, summary over the cell panel. The class given is cell-based. The following applies: range over the tumor cell lines, preliminary tests. How it is done: (§2) Tumor cells in suspension or adherent cells were incubated under standard conditions in appropriate culture media for 24-72 h with the peptides in 2-40 micromolar concentration. After this time, the number of living cells was determined using routine tests, e.g. MTT test. The IC50 was determined as concentration of peptides, which caused 50% decrease in cell viability in comparison to controls (no peptide present). In preliminary tests mouse lymphocytic leukemia L1210 (CCL 219), CCRF-CEM T lymphoblastoid (human acute lymphoblastic leukemia, CCL 119), human promyelocytic leukemia HL-60 (CCL 240), human cervix carcinoma HeLa S3, rat pheochromocytoma PC12, human colon adenocarcinoma SW480 (CCL-228), and normal rat epithelial cells (IEC-6, CRL-1592) from ATCC (Manassas, VA, USA), were used. […] Table 4. Cytostatic effect of selected peptides on cancer cells

The subject of series [1] is mouse lymphocytic leukemia L1210. Description: Cytostatic effect on cancer cells (e.g. MTT test). Type of series: cell-based. To be noted: 24-72 h incubation, 50% decrease in cell viability. As for the experimental part:
as §2

For series [2], the system named is human promyelocytic leukemia HL-60. As to the kind of experiment: Cytostatic effect on cancer cells (e.g. MTT test). The class given is cell-based. The following applies: 24-72 h incubation, 50% decrease in cell viability. How it is done: as §2
Series [3] concerns human colon adenocarcinoma SW480. As to the kind of experiment: Cytostatic effect on cancer cells (e.g. MTT test). The class given is cell-based. The following applies: 24-72 h incubation, 50% decrease in cell viability. How it is done: as §2
The test system of series [4] is rat pheochromocytoma PC12. Description: Cytostatic effect on cancer cells (e.g. MTT test). To be noted: 24-72 h incubation, 50% decrease in cell viability. Type of series: cell-based. How it is done:
as §2
(Formazan colour is commonly taken as a measure of viable cells.)

The test system of series [5] is human cervix carcinoma HeLa S3. Description: Cytostatic effect on cancer cells (e.g. MTT test). Type of series: cell-based. The following applies: 24-72 h incubation, 50% decrease in cell viability; read-out: IC50 [µM] HeLaS3. How it is done: as §2
The test system of another series is rat red blood cells. As to the kind of experiment: Determination of hemolytic activity. The following applies: for Hemolytic activity: rat red blood cells (5%), 1 h at 37°C, peptides 1-200 µM. Type of series: cell-based. How it is done:
The peptides in the concentration (1-200 µM) were incubated with rat red blood cells (5%) for 1 h at 37°C in a physiological solution at a final volume of 0.2 ml. The samples were then centrifuged for 5 min at 250 g, and the absorbance of the supernatant was determined at 540 nm. Supernatants of red blood cells suspended in physiological solution and in 0.2% TRITON X100 in physiological solution served as controls for zero hemolysis (blank) and 100% hemolysis, respectively. Table 3. Antimicrobial and hemolytic activity of melectin (I) and its synthetic analogs of formulas II/1 to II/18

Series [6] concerns CCRF-CEM T lymphoblastoid. As to the kind of experiment: Cytostatic effect on cancer cells (e.g. MTT test). To be noted: 24-72 h incubation, 50% decrease in cell viability. Type of series: cell-based, human. How it is done: as §2

Turning to `CC[C@H](C)[C@H](NC(=O)[C@H](CO)NC(=O)[C@H](CC(C)C)NC(=O)[C@H](Cc1ccccc1)NC(=O)CN)C(=O)N[C@@H](CC(C)C)C(=O)N[C@@H](CCCCN)C(=O)N[C@@H](CCCCN)C(=O)N[C@H](C(=O)N[C@@H](CC(C)C)C(=O)N1CCC[C@H]1C(=O)N[C@@H](CCCCN)C(=O)N[C@H](C(=O)N[C@@H](CCSC)C(=O)N[C@@H](C)C(=O)N[C@@H](Cc1cnc[nH]1)C(=O)N[C@@H](CCSC)C(=O)N[C@@H](CCCCN)C(N)=O)C(C)C)C(C)C` [Peptide I, H-Gly-Phe-Leu-Ser-Ile-Leu-Lys-Lys-Val-Leu-Pro-Lys-Val-Met-Ala-His-Met-Lys-NH2], in the series on bacteria, the “antimicrobial effect (in words)” value is “strong antimicrobial effect”. The 50% inhibitory concentration (IC50) with Pseudomonnas aeruginosa is 18.5 µM; in the series with Bacilus subtilis, 0.8 µM; in the series with Escherichia coli, 2 µM; with Staphylococcus aureus it was 6.8 µM; in the series on Tumor cells it was 4 to 30 µM; in series [1], above 10 µM. In addition, the IC50 is above 10 µM in series [2]; 25 µM in series [3]; 10 µM in series [4]; 18.1 µM in series [5]; above 10 µM in series [6]. Moreover, in the series with rat red blood cells, the “hemolytic activity (in words)” value is given as “low hemolytic activity”. The molecule further came in with a Hemolytic activity in the series on rat red blood cells above 100 µM.

As to “H-GFLSILKKVLPKVMKAMK-NH2 [II/7, H-Gly-Phe-Leu-Ser-Ile-Leu-Lys-Lys-Val-Leu-Pro-Lys-Val-Met-Lys-Ala-Met-Lys-NH2]”, the IC50 in the series with Pseudomonnas aeruginosa came to 31.7 µM; in the series with Bacilus subtilis, 0.8 µM; in the series on Escherichia coli, 1.5 µM; in the series with Staphylococcus aureus, 7.7 µM; in [1] it was 6.9 µM; in [2] it was 9.1 µM. In addition, the IC50 in [3] amounted to 12.5 µM; in series [5], 9.6 µM; in series [6], 8.8 µM. Besides, the Hemolytic activity in the series on rat red blood cells came to 70 µM.

A word on the IC50: it is the concentration at which inhibition is half-maximal.
